Source: patent US10501453B2, “Benzothiazole or benzoxazole compounds as SUMO activators” (Icahn School of Medicine at Mount Sinai, priority 2012, dated 2019)

System: SERCA2a
Assay: SERCA2a SUMOylation assay in HEK-293 cells (immunoprecipitation/immunoblotting)
Format: cell-based
From the text: The following antibodies were used for immunoblotting and immunoprecipitation (IP): polyclonal anti-SERCA2a (21th century Biochem Inc.), monoclonal anti-GAPDH (Sigma-Aldrich, catalog no. G8795), monoclonal anti-SUMO 1 (Cell Signaling Technology Inc., catalog no. 4930), anti-mouse horseradish peroxidase (HRP) (Pierce Biotechnology Inc., catalog no. 32430), and anti-rabbit HRP (Pierce Biotechnology Inc., catalog no. 32460). YFP-tagged SUMO1, pcDNA3.0-SERCA2a, and HA-tagged Ubc9 plasmids were used for the transfection. The plasmid DNA was amplified in the Escherichia coli strain DH5a and extracted by using a commercial purification kit (Qiagen, catalog no. 12263). Purified plasmid was resuspended in sterile TE buffer (10 mM Tris-HCl and 1 mM EDTA, pH 7.6). Only the preparation highest purity (A260/A280>1.8) was used for transfection. 1 μg of each plasmid was used for transfection. HEK-293 cells (American Type Culture Collection, catalog no. CRL-1873) were grown at 37° C. and under a 5% CO2 humidified atmosphere in Dulbecco's modified Eagle's medium (DMEM, Cellgro, catalog no. 10-0 13-CM) containing 10% fetal bovine serum (SAFC Bioscience, catalog no. 12107) and 100 i.u of penicillin/ml and 100 μg of streptomycin/ml. HEK-293 cells were seeded at a density of 3-5×10^5 cells per 60 mm culture dish in DMEM. The cells were transiently transfected using Lipofectamine 2000 (Invitrogen, catalog no. 11668) with indicated expression plasmids. After 24 hours, the cells were treated with either small molecules or dimethyl sulfoxide (DMSO, Sigma-Aldrich, catalog no. D2650).
Each compound was added at 10 μM. DMSO was used as a control. After 24 hours at 37° C., SERCA2a SUMOylation and functional analysis were determined.
Equal amounts of protein from either small molecule treated or DMSO treated cells or immunoprecipitates were resolved by 7.5% SDS-PAGE and transferred to nitrocellulose membranes (Bio-Rad, catalog no. 162-0112). The membranes were blocked for 1 hour at room temperature with 5% non-fat milk (Cell Signaling Technology Inc., catalog no. 9999) in TBST (10 mM Tris-HCl, 150 mM NaCl, and 0.05% tween-20, pH 8.0). The blots were incubated with specific primary antibodies at 4° C. for overnight. The blots were then washed five times for 10 minutes each with TBST and incubated for 1 hour with HRP-conjugated secondary antibodies in TBST with 5% non-fat milk. After five times TBST washes, the protein bands were visualized with enhanced chemiluminescence (Pierce Biotechnology Inc., catalog no. 32132) and exposed to x-ray film (Denville Scientific Inc., catalog no. E3012). GAPDH expression provided an internal control.
Post-transfection (48 hours), the HEK-293 cells were rinsed twice with phosphate-buffered saline (PBS, Cellgro, catalog no. 21-040-CM) and lysed in 1% Nonidet P-40 lysis buffer (Boston Bioproducts, catalog no. BP-119) with 10 mM N-ethylmaleimide (NEM, Sigma-Aldrich, catalog no. N3876) and […] inhibitor cocktail (Complete Mini Tablet, Roche Applied Science, catalog no. 11836153001). 2 mg of protein were mixed with the anti-SERCA2a antibodies for overnight at 4° C. in lysis buffer. Pre-washed protein A-Separose beads (Pierce Biotechnology Inc., catalog no. 20333) was added to each sample and incubated 1 hour at 4° C. with gentle rocking. Immunocomplexes were washed with lysis buffer three times and precipitated by centrifugation at 12000×g for 10 seconds. The immunocomplexes were resuspended in SDS sample buffer and subjected to immunoblotting. Controls for the immunoprecipitations were performed using an anti-rabbit IgG equal to that of the primary precipitating antibody. Ten percent of whole cell lysates used in the immunoprecipitation was loaded for subsequent immunoblotting.
The ability of the Example compound to SUMOylate SERCA2a was examined using an in vitro system in HEK 293 cells where both SERCA2a and SUMO 1 are expressed. […]

COc1ccc(-c2nnc(Nc3nc4c(OC)cccc4s3)o2)cc1 [Example 1, N-(4-methoxybenzo[d]thiazol-2-yl)-5-(4-methoxyphenyl)-1,3,4-oxadiazol-2-amine]
SERCA2a SUMOylation in HEK 293 cells: increases SUMOylation of SERCA2a in a dose dependent manner
